PubChem BioAssay AID266 (DTP/NCI, 2004)
Where “and” joins values, the source holds several entries; their conditions need not be identical. Identical values can stand only once. Results filed as inconclusive are left out.

System: Nude mice, LX-1 lung xenograft intrarenal, tumor weight T/C
Assay: NCI In Vivo Anticancer Drug Screen. Data for tumor model Human Lung LX-1 Xenograft (intrarenal inoculation) in NU/NU BALB/C (nude) mice
Conditions: endpoint: mean tumor weight change, higher = larger tumour
Protocol: The antitumor activity of compounds was measured in mice bearing transplantable tumors. Survival or tumor size were measured and the results are expressed as the measurement made in the treated group (T) divided by the measurement made in the vehicle treated control group (C). The tumor model used in this assay is Human Lung LX-1 Xenograft (intrarenal inoculation) in NU/NU BALB/C (nude) mice

[1] = dose: 50.0 mg/kg/injection, schedule: Q01DX010 (sc), vehicle: saline
[2] = dose: 200.0 mg/kg/injection, schedule: Q01DX010 (sc), vehicle: saline
[3] = dose: 100.0 mg/kg/injection, schedule: Q01DX010 (sc), vehicle: saline
[4] = dose: 166.66 mg/kg/injection, schedule: Q04DX003 (sc), vehicle: saline
[5] = dose: 666.65 mg/kg/injection, schedule: Q04DX003 (sc), vehicle: saline
[6] = dose: 300.0 mg/kg/injection, schedule: Q04DX003 (sc), vehicle: Klucel (hydroxypropylcellulose) (HPC)
[7] = dose: 300.0 mg/kg/injection, schedule: Q04DX003 (sc), vehicle: saline with Tween-80
[8] = dose: 600.0 mg/kg/injection, schedule: Q04DX003 (sc), vehicle: saline with Tween-80
[9] = dose: 1200.0 mg/kg/injection, schedule: Q04DX003 (sc), vehicle: saline with Tween-80
[10] = dose: 2400.0 mg/kg/injection, schedule: Q04DX003 (sc), vehicle: saline with Tween-80

## CC(C)CCCCCCCCCCCCC(=O)NCC(=O)NC1C(O)C(O)C(Nc2ncnc3nc[nH]c23)OC1C(O)CO (configuration not stated)
dose: 0.4 mg/kg/injection, schedule: Q01DX010 (sc), vehicle: saline
  T/C: 98 % of control
dose: 0.8 mg/kg/injection, schedule: Q01DX010 (sc), vehicle: saline
  T/C: 24 % of control

## CCOC(=O)c1c[nH]c2oc(/C=N/N3CC(CN4CCOCC4)OC3=O)cc2c1=O (configuration not stated)
[1]
  T/C: 81 % of control
[2]
  T/C: 118 % of control

## NC(CNC(=O)CBr)C(=O)O (configuration not stated)
dose: 75.0 mg/kg/injection, schedule: Q04DX003 (sc), vehicle: water
  T/C: 105 % of control
dose: 150.0 mg/kg/injection, schedule: Q04DX003 (sc), vehicle: water
  T/C: 79 % of control

## Cc1ccoc1
dose: 50.0 mg/kg/injection, schedule: Q01DX010 (ip), vehicle: saline with Tween-80
  T/C: 109 % of control
dose: 100.0 mg/kg/injection, schedule: Q01DX010 (ip), vehicle: saline with Tween-80
  T/C: 93 % of control
dose: 200.0 mg/kg/injection, schedule: Q01DX010 (ip), vehicle: saline with Tween-80
  T/C: 163 % of control
dose: 400.0 mg/kg/injection, schedule: Q01DX010 (ip), vehicle: saline with Tween-80
  T/C: 80 % of control

## CC1CN1C(=O)NCCCCCCNC(=O)N1CC1C (configuration not stated)
dose: 20.0 mg/kg/injection, schedule: Q04DX003 (sc), vehicle: Klucel (hydroxypropylcellulose) (HPC)
  T/C: 68 % of control

## CNNCc1ccc(C(=O)NC(C)C)cc1
dose: 50.0 mg/kg/injection, schedule: Q01DX010 (ip), vehicle: saline
  T/C: -66 % of control
[1]
  T/C: 2 % of control and 11 % of control
dose: 100.0 mg/kg/injection, schedule: Q01DX010 (ip), vehicle: saline
  T/C: -100 % of control
[3]
  T/C: 8 % of control
[4]
  T/C: 5 % of control
[2]
  T/C: -71 % of control
dose: 333.33 mg/kg/injection, schedule: Q04DX003 (sc), vehicle: saline
  T/C: -38 % of control
dose: 400.0 mg/kg/injection, schedule: Q01DX010 (sc), vehicle: saline
  T/C: -65 % of control
[5]
  T/C: -14 % of control

## CN1CCc2c(c3ccccc3c3ccccc23)C1
dose: 150.0 mg/kg/injection, schedule: Q04DX003 (sc), vehicle: Klucel (hydroxypropylcellulose) (HPC)
  T/C: 58 % of control
[6]
  T/C: 55 % of control
dose: 600.0 mg/kg/injection, schedule: Q04DX003 (sc), vehicle: Klucel (hydroxypropylcellulose) (HPC)
  T/C: 48 % of control

## CN(C)c1ccc2c(NCCCCCCNc3ccnc4cc(N(C)C)ccc34)ccnc2c1
dose: 37.5 mg/kg/injection, schedule: Q04DX003 (sc), vehicle: distilled water + Tween-80 + alcohol
  T/C: 122 % of control
dose: 75.0 mg/kg/injection, schedule: Q04DX003 (sc), vehicle: distilled water + Tween-80 + alcohol
  T/C: 80 % of control
dose: 150.0 mg/kg/injection, schedule: Q04DX003 (sc), vehicle: distilled water + Tween-80 + alcohol
  T/C: 75 % of control

## Cc1c(CNc2ccc(C(=O)NC(CC(=O)O)C(=O)O)cc2)ccc2nc(N)nc(N)c12 (configuration not stated)
dose: 12.5 mg/kg/injection, schedule: Q04DX003 (sc), vehicle: saline with Tween-80
  T/C: 100 % of control
dose: 25.0 mg/kg/injection, schedule: Q04DX003 (sc), vehicle: saline with Tween-80
  T/C: 71 % of control
dose: 50.0 mg/kg/injection, schedule: Q04DX003 (sc), vehicle: saline with Tween-80
  T/C: 32 % of control

## NC1=NCN(C2OC(CO)C(O)C2O)C(=O)N1 (configuration not stated)
dose: 25.0 mg/kg/injection, schedule: Q01DX010 (sc), vehicle: saline
  T/C: 86 % of control
[1]
  T/C: 180 % of control
[3]
  T/C: 112 % of control
[4]
  T/C: 158 % of control
[2]
  T/C: 84 % of control
dose: 333.32 mg/kg/injection, schedule: Q04DX003 (sc), vehicle: saline
  T/C: 55 % of control
[5]
  T/C: 88 % of control

## CCOC(C)C(/C=N/NC(N)=S)=NNC(N)=S (configuration not stated)
dose: 200.0 mg/kg/injection, schedule: Q01DX010 (sc), vehicle: saline with Tween-80
  T/C: 231 % of control
dose: 400.0 mg/kg/injection, schedule: Q01DX010 (sc), vehicle: saline with Tween-80
  T/C: 233 % of control
dose: 800.0 mg/kg/injection, schedule: Q01DX010 (sc), vehicle: saline with Tween-80
  T/C: 78 % of control

## NNC(=S)N/N=C/c1ccccn1
dose: 15.0 mg/kg/injection, schedule: Q04DX003 (sc), vehicle: saline with Tween-80
  T/C: 78 % of control
dose: 30.0 mg/kg/injection, schedule: Q04DX003 (sc), vehicle: saline with Tween-80
  T/C: 95 % of control
dose: 60.0 mg/kg/injection, schedule: Q04DX003 (sc), vehicle: saline with Tween-80
  T/C: 94 % of control

## NC(N)=NOCC[C@@H](N)C(=O)O
dose: 300.0 mg/kg/injection, schedule: Q04DX003 (sc), vehicle: saline
  T/C: 91 % of control
dose: 600.0 mg/kg/injection, schedule: Q04DX003 (sc), vehicle: saline
  T/C: 91 % of control
dose: 1200.0 mg/kg/injection, schedule: Q04DX003 (sc), vehicle: saline
  T/C: 82 % of control
dose: 2400.0 mg/kg/injection, schedule: Q04DX003 (sc), vehicle: saline
  T/C: 59 % of control

## C[n+]1c(-c2cccc3ccccc23)c2cc(N)ccc2c2ccccc21
dose: 1.5 mg/kg/injection, schedule: Q04DX003 (sc), vehicle: saline
  T/C: 164 % of control
dose: 6.0 mg/kg/injection, schedule: Q04DX003 (sc), vehicle: saline
  T/C: 113 % of control
dose: 24.0 mg/kg/injection, schedule: Q04DX003 (sc), vehicle: saline
  T/C: 112 % of control
dose: 48.0 mg/kg/injection, schedule: Q04DX003 (sc), vehicle: saline
  T/C: 78 % of control

## CCN(CC)Cc1cc2[nH]c3c4ccc(Cl)cc4ncc3c2cc1OC
dose: 75.0 mg/kg/injection, schedule: Q04DX003 (sc), vehicle: saline with Tween-80
  T/C: 73 % of control
dose: 150.0 mg/kg/injection, schedule: Q04DX003 (sc), vehicle: saline with Tween-80
  T/C: 71 % of control
[7]
  T/C: 86 % of control

## NC(=O)/C=C/C(=O)c1c(Cl)cccc1Cl
dose: 9.0 mg/kg/injection, schedule: Q04DX003 (sc), vehicle: saline with Tween-80
  T/C: 83 % of control
dose: 18.0 mg/kg/injection, schedule: Q04DX003 (sc), vehicle: saline with Tween-80
  T/C: 79 % of control

## COC1N(C2CC(O)C(CO)O2)C(=O)NC(=O)C1(F)Br (configuration not stated)
dose: 12.5 mg/kg/injection, schedule: Q01DX010 (sc), vehicle: saline
  T/C: 54 % of control
[1]
  T/C: 12 % of control and 24 % of control
[3]
  T/C: 12 % of control and 13 % of control

## c1cc(OCC2CO2)ccc1OCC1CO1 (configuration not stated)
[7]
  T/C: 172 % of control
[8]
  T/C: 118 % of control
[9]
  T/C: 114 % of control
[10]
  T/C: 88 % of control

## Cn1cc(C2NC(=O)c3ccccc3N2)c2ccccc21 (configuration not stated)
[6]
  T/C: 83 % of control and 103 % of control
dose: 900.0 mg/kg/injection, schedule: Q04DX003 (sc), vehicle: Klucel (hydroxypropylcellulose) (HPC)
  T/C: 111 % of control and 92 % of control
dose: 1200.0 mg/kg/injection, schedule: Q04DX003 (sc), vehicle: Klucel (hydroxypropylcellulose) (HPC)
  T/C: 90 % of control and 103 % of control

## [Cl][Hg][Cl]
dose: 2.5 mg/kg/injection, schedule: Q04DX003 (ip), vehicle: saline
  T/C: 92 % of control
dose: 5.0 mg/kg/injection, schedule: Q04DX003 (ip), vehicle: saline
  T/C: 82 % of control
dose: 10.0 mg/kg/injection, schedule: Q04DX003 (ip), vehicle: saline
  T/C: 58 % of control

## CC[C@@]1(O)C(=O)OCc2c1cc1n(c2=O)Cc2cc3ccccc3nc2-1
dose: 5.0 mg/kg/injection, schedule: Q04DX003 (sc), vehicle: saline with Tween-80
  T/C: 15 % of control
dose: 10.0 mg/kg/injection, schedule: Q04DX003 (sc), vehicle: saline with Tween-80
  T/C: 5 % of control and 12 % of control
dose: 20.0 mg/kg/injection, schedule: Q04DX003 (sc), vehicle: saline with Tween-80
  T/C: 3 % of control and 4 % of control

## CCN(CC)CCNc1ccc(C)c2sc3ccccc3c(=O)c12
[1]
  T/C: 211 % of control

## O=C(c1cccnc1)c1cc(-c2ccccn2)c(=O)n2ccccc12
[7]
  T/C: 95 % of control
[8]
  T/C: 74 % of control
[9]
  T/C: 92 % of control
[10]
  T/C: 74 % of control

## N#Cc1cn(C2OC(CO)C(O)C2O)c2ncnc(N)c12 (configuration not stated)
dose: 1.0 mg/kg/injection, schedule: Q01DX010 (sc), vehicle: saline
  T/C: 26 % of control
dose: 2.0 mg/kg/injection, schedule: Q01DX010 (sc), vehicle: saline
  T/C: 77 % of control

## c1ccc2c(c1)[As]=c1ccccc1=[As]2 (configuration not stated)
dose: 18.75 mg/kg/injection, schedule: Q04DX003 (sc), vehicle: saline
  T/C: 58 % of control
dose: 37.5 mg/kg/injection, schedule: Q04DX003 (sc), vehicle: saline
  T/C: 46 % of control
dose: 75.0 mg/kg/injection, schedule: Q04DX003 (sc), vehicle: saline
  T/C: 50 % of control
dose: 150.0 mg/kg/injection, schedule: Q04DX003 (sc), vehicle: saline
  T/C: 40 % of control
